Results on one molecule are retold here after article PMC8251711 (Angewandte Chemie (International Ed. in English), 2021).

For the assay, the target named is LAT1 (Homo sapiens, UniProt Q01650). The assay is described as follows: [3H]-gabapentin uptake competition assay in LN229 cells. To be noted: read-out: IC50, [3H]-gabapentin uptake competition. The format is cell-based.
Sequence of LAT1 (Q01650 whole entry): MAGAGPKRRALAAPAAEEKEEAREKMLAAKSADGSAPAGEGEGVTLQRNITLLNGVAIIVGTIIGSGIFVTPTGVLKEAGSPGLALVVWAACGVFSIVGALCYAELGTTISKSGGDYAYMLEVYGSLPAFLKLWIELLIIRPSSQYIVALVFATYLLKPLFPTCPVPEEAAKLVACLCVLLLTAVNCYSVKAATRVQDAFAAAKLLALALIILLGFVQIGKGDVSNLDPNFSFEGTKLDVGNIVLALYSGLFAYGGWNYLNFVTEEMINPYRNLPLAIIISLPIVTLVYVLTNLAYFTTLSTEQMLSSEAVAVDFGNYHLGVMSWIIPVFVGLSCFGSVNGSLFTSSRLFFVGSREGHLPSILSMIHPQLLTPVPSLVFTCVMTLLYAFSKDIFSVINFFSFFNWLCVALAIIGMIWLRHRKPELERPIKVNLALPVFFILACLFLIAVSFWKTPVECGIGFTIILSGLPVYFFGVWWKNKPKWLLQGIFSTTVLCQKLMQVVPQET
Sequence of LAT1 (P08195 102-630 partner): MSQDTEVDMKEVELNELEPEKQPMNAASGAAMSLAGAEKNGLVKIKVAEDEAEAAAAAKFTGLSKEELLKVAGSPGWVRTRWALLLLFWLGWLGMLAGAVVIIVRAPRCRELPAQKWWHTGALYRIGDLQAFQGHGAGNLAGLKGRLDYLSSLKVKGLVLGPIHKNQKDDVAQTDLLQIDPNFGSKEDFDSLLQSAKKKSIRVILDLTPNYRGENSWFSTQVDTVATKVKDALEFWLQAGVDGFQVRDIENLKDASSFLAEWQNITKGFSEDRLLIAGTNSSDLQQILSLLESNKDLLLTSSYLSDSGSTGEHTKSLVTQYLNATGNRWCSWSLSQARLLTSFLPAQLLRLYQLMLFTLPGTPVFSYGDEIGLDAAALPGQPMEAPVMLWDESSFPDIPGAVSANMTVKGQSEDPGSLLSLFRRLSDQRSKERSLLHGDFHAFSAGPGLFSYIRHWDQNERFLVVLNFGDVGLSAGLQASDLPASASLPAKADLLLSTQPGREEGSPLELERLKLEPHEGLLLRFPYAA

As to `Nc1cc(COc2c(Cl)cc(C[C@H](N)C(=O)O)cc2Cl)c2oc(-c3ccccc3)nc2c1` [JPH203], the IC50 (in general, the concentration that inhibits the measured activity by half) stood at 0.029 µM.
